Values after ≈ are worked out from the molar mass of the structure shown.
Key:
[1] = Solubility of esters in oils (solvent added in increments until a room temperature solubility is obtained); assay type: physicochemical; settings: for Solubility Limit / solubility: castor oil, room temperature; for solubility: oil or lipid, thermodynamic from solid, read-out: Solubility Limit
Method: About 150 mg samples of each drug substance in Table are placed in about 300 mg of a test solvent in a test tube. The samples are swirled and gently heated with a warm water bath. Additional solvent is added in about 100 mg increments until solubility is reached. The samples are cooled overnight and if precipitation is observed, then more solvent is again added in portions until a room temperature solubility is obtained. […] Ganaxolone enanthate is a liquid and appeared miscible in the oils tested.

migraine = settings: phase 2 clinical trial for migraine; cited from earlier work
[2] = post-oral administration; cited from earlier work

CCCCCCC(=O)OC1(C)CCC2(C)C(CCC3C2CCC2(C)C(C(C)=O)CCC32)C1 (stereo not shown) [Ganaxalone Enanthate]
Miscibility in the oils tested ([1]; oils tested, substance is a liquid): miscible

CC(=O)[C@H]1CC[C@H]2[C@@H]3CC[C@H]4C[C@](C)(O)CC[C@]4(C)[C@H]3CC[C@]12C [Ganaxalone, 3a-hydroxy-3-methyl-5a-pregnan-20-one]
benefit on time to pain relief (migraine): failed to show benefit | drug recovered in feces [2]: ~80% | Solubility Limit [1]: ~1 % w/w | solubility [1]: ~10 mg/mL (≈ 30.1 mM)

CC(=O)[C@H]1CC[C@H]2[C@@H]3CC[C@H]4C[C@H](O)CC[C@]4(C)[C@H]3CC[C@]12C [Allopregnanolone, 5α-pregnan-3α-ol-20-one]
Solubility Limit [1]: < 1 % w/w | solubility [1]: < 10 mg/mL
